Laboratory results taken from patent US8952024B2, “Herbicidal pyrimidone derivatives” (E I du Pont de Nemours and Company, priority 2009, dated 2015).

Columns and labels:
wild oat (Avena fatua) = test: Test B pre-/postemergence plant response; type: in vivo; conditions: for Oat, Wild plant response rating: scale 0 to 100; for Oat, Wild plant response rating (0 to 100 scale): 0 is no effect
How it was run: (§1)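 Steps: sow seed in loam–sand soil and spray preemergence, or grow plants in peat-based medium to 1–4 leaves (2–18 cm) and spray postemergence; formulation is non-phytotoxic solvent plus surfactant; hold in greenhouse 13–15 days; score visually vs controls, 0 = no effect, 100 = complete control.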

[1] = tested on: galium (catchweed bedstraw, Galium aparine); test: Test B pre-/postemergence plant response; type: in vivo; conditions: Postemergence
How it was run: as §1

[2] = Postemergence, 125 g ai/ha, visual rating after 13 to 15 days, scale 0 (no effect) to 100 (complete control)
[3] = 31 g ai/ha, postemergence, scale 0 to 100, 0 is no effect, 100 is complete control
[4] = 62 g ai/ha, postemergence, 100 is complete control, 13 to 15 days
[5] = Postemergence, 250 g ai/ha, scale 0 to 100 (0 no effect, 100 complete control)
[6] = Postemergence, 125 g ai/ha, scale 0 to 100 (0 no effect, 100 complete control)
[7] = Postemergence, 31 g ai/ha, 0 to 100 scale (0 no effect, 100 complete control)
[8] = 16 g ai/ha, Postemergence, 0 to 100 scale
[9] = Postemergence, 250 g ai/ha, scale 0 to 100 (0 no effect, 100 complete control), 13 to 15 days
[10] = Postemergence, 62 g ai/ha, scale 0 to 100 (0 no effect, 100 complete control)
[11] = Postemergence, 125 g ai/ha, scale 0 (no effect) to 100 (complete control), 13 to 15 days

Row | SMILES | Plant response rating, Oat, Wild (wild oat (Avena fatua); [3]) | Oat, Wild plant response rating (0 to 100 scale) (wild oat (Avena fatua); [4]) | Plant response rating, Oat, Wild (wild oat (Avena fatua); [5]) | Plant response rating, Oat, Wild (wild oat (Avena fatua); [6]) | Plant response rating, Oat, Wild (wild oat (Avena fatua); [7]) | Plant response rating, Oat, Wild (wild oat (Avena fatua); [9]) | other results
1 | COc1ccc(-n2c(-c3ccccc3)ncc(C(=O)C3=C(O)CCCC3=O)c2=O)cc1 [Compound 4, 5-[(2-hydroxy-6-oxo-cyclohexen-1-yl)carbonyl]-3-(4-methoxyphenyl)-2-phenyl-4(3H)-pyrimidinone] |  |  |  |  |  |  | pest or weed control at 31 g/ha (wild oat (Avena fatua); Avena fatua, post-emergence, Postemergence, 31 g ai/ha, scale 0 to 100 (0 no effect, 100 complete control), read-out: Plant response rating, Oat, Wild): 30%; pest or weed control at 62 g/ha (wild oat (Avena fatua); Avena fatua, post-emergence, Postemergence, 62 g ai/ha, scale 0 (no effect) to 100 (complete control), 13 to 15 days, read-out: Plant response rating, Oat, Wild): 50%; pest or weed control at 125 g/ha (wild oat (Avena fatua); Avena fatua, post-emergence, Postemergence, 125 g ai/ha, visual rating after 13 to 15 days, scale 0 (no effect) to 100 (complete control)): 50%; Oat, Wild plant response rating (wild oat (Avena fatua); Postemergence, 250 g ai/ha): 50
2 | Cc1ccc(-n2c(-c3ccccc3)ncc(C(=O)C3=C(O)CCCC3=O)c2=O)cc1 [Compound 8] |  |  |  |  |  |  | Plant response rating, Oat, Wild (wild oat (Avena fatua); Postemergence, 31 g ai/ha, scale 0 to 100 (0 no effect, 100 complete control)): 10; Plant response rating, Oat, Wild (wild oat (Avena fatua); Postemergence, 62 g ai/ha, scale 0 (no effect) to 100 (complete control), 13 to 15 days): 15; Plant response rating, Oat, Wild (wild oat (Avena fatua); [2]): 35; Oat, Wild plant response rating (wild oat (Avena fatua); Postemergence, 250 g ai/ha): 35
3 | O=C1CCCC(O)=C1C(=O)c1cnc(-c2ccccc2Br)n(-c2ccccc2)c1=O [Compound 71] | 0 | 0 | 5 |  |  |  | Plant response rating, Oat, Wild (wild oat (Avena fatua); [2]): 0
4 | Cc1ccc(-c2ncc(C(=O)C3=C(O)CCCC3=O)c(=O)n2-c2ccccc2)cc1 [Compound 80] | 20 | 30 | 50 |  |  |  | Plant response rating, Oat, Wild (wild oat (Avena fatua); [2]): 40
5 | Cc1ccccc1-c1ncc(C(=O)C2=C(O)CCCC2=O)c(=O)n1-c1ccccc1 [Compound 82] | 0 | 0 | 10 |  |  |  | Plant response rating, Oat, Wild (wild oat (Avena fatua); [2]): 5
6 | CC(C)CC(=O)OC1=C(C(=O)c2cnc(-c3ccccc3)n(-c3ccccc3)c2=O)C(=O)CCC1 [Compound 83] | 10 | 10 | 10 |  |  |  | 
7 | CCCCn1c(-c2ccccc2)ncc(C(=O)C2=C(O)CCCC2=O)c1=O [Compound 86] | 20 | 50 | 80 |  |  |  | 
8 | O=C1CCCC(OC(=O)C2CC2)=C1C(=O)c1cnc(-c2ccccc2)n(-c2ccccc2)c1=O [Compound 88] | 50 | 55 | 80 |  |  |  | 
9 | CCCCCn1c(-c2ccccc2)ncc(C(=O)C2=C(O)CCCC2=O)c1=O [Compound 89] | 10 | 10 | 50 |  |  |  | 
10 | CC(C)n1c(-c2ccccc2)ncc(C(=O)C2=C(O)CCCC2=O)c1=O [Compound 95] | 0 | 0 | 0 |  |  |  | 
11 | CCCn1c(-c2ccc(F)cc2)ncc(C(=O)C2=C(O)CCCC2=O)c1=O [Compound 102] | 5 | 15 | 80 | 40 |  |  | 
12 | COCC(C)n1c(-c2ccccc2)ncc(C(=O)C2=C(O)CCCC2=O)c1=O (centres unmarked) [Compound 107] | 0 | 5 | 40 | 20 |  |  | 
13 | COCCn1c(-c2cccc(C)c2)ncc(C(=O)C2=C(O)CCCC2=O)c1=O [Compound 117] | 5 | 10 | 35 | 30 |  |  | 
14 | COCCCn1c(-c2cccc(C)c2)ncc(C(=O)C2=C(O)CCCC2=O)c1=O [Compound 118, 5-[(2-hydroxy-6-oxo-1-cyclohexane-1-yl)carbonyl]-3-(3-methoxypropyl)-2-(3-methylphenyl)-4(3H)-pyrimidinone] | 5 | 5 | 40 | 10 |  |  | 
15 | CCCCn1c(-c2cc(F)cc(F)c2)ncc(C(=O)C2=C(O)CCCC2=O)c1=O [Compound 121] | 60 | 90 | 98 | 98 |  |  | 
16 | COCCn1c(-c2cccc(F)c2)ncc(C(=O)C2=C(O)CCCC2=O)c1=O [Compound 123] |  | 5 | 60 | 30 | 0 |  | 
17 | O=C1CCCC(O)=C1C(=O)c1cnc(-c2ccccc2)n(C2CCCC2)c1=O [Compound 131] |  | 0 |  | 0 | 0 |  | Plant response rating, Oat, Wild (wild oat (Avena fatua); [8]): 0

Row | SMILES | Plant response rating, Oat, Wild (wild oat (Avena fatua); [3]) | Oat, Wild plant response rating (0 to 100 scale) (wild oat (Avena fatua); [4]) | Plant response rating, Oat, Wild (wild oat (Avena fatua); [5]) | Plant response rating, Oat, Wild (wild oat (Avena fatua); [6]) | Plant response rating, Oat, Wild (wild oat (Avena fatua); [7]) | Plant response rating, Oat, Wild (wild oat (Avena fatua); [9]) | other results
18 | COCCCn1c(-c2cccc(Br)c2)ncc(C(=O)C2=C(O)CCCC2=O)c1=O [Compound 140] |  | 5 |  | 10 | 0 | 40 | 
19 | CCCn1c(-c2cccc(Br)c2)ncc(C(=O)C2=C(O)CCCC2=O)c1=O [Compound 141] |  | 10 |  | 15 | 10 | 40 | 
20 | CCCCn1c(-c2cccc(Cl)c2)ncc(C(=O)C2=C(O)CCCC2=O)c1=O [Compound 146] |  | 20 |  | 50 | 0 | 70 | 
21 | COCCn1c(-c2cccc(Cl)c2)ncc(C(=O)C2=C(O)CCCC2=O)c1=O [Compound 147] |  | 10 |  | 20 | 5 | 45 | 
22 | CCCn1c(-c2cc(F)cc(F)c2)ncc(C(=O)C2=C(O)CCCC2=O)c1=O [Compound 152] |  | 45 |  | 80 | 30 | 85 | 
23 | CCCn1c(-c2cccc(C(F)(F)F)c2)ncc(C(=O)C2=C(O)CCCC2=O)c1=O [Compound 155] |  | 40 |  | 60 | 10 | 70 | 
24 | CCCn1c(-c2cc(C)cc(C)c2)ncc(C(=O)C2=C(O)CCCC2=O)c1=O [Compound 156] |  |  |  | 35 | 5 | 50 | 
25 | Cc1ccc(F)cc1-n1c(-c2cccc(Cl)c2)ncc(C(=O)C2=C(O)CCCC2=O)c1=O [Compound 157] |  |  |  | 60 | 30 | 70 | 
26 | Cc1ccccc1-n1c(-c2cc(F)cc(F)c2)ncc(C(=O)C2=C(O)CCCC2=O)c1=O [Compound 159] |  |  |  |  | 60 |  | Plant response rating, Oat, Wild (wild oat (Avena fatua); 8 g ai/ha, Postemergence, 0 to 100 scale): 0; Plant response rating, Oat, Wild (wild oat (Avena fatua); [8]): 35
27 | O=C1CCCC(O)=C1C(=O)c1cnc(-c2ccccc2)n(C2CCSCC2)c1=O [Compound 164] |  |  |  | 85 | 25 | 90 | 
28 | O=C1CCCC(O)=C1C(=O)c1cnc(-c2cc(F)cc(F)c2)n(C2CCCCC2)c1=O [Compound 181] |  |  |  | 90 | 65 | 100 | 
29 | Cc1ccc(Cl)cc1-n1c(-c2cccc(F)c2)ncc(C(=O)C2=C(O)CCCC2=O)c1=O [Compound 184] |  |  |  | 80 | 40 | 98 | Plant response rating, Galium ([1]; 31 g ai/ha, 0 to 100 scale (0 no effect, 100 complete control)): 50; Plant response rating, Galium ([1]; 125 g ai/ha, scale 0 to 100 (0 no effect, 100 complete control)): 60; Plant response rating, Galium ([1]; 250 g ai/ha, scale 0 to 100 (0 no effect, 100 complete control), 13 to 15 days): 60
30 | CC1(C)CC(=O)C(C(=O)c2cnc(-c3ccccc3)n(-c3ccccc3)c2=O)=C(O)C1 [Compound 225] |  |  |  |  | 45 |  | Plant response rating, Oat, Wild (wild oat (Avena fatua); [8]): 25; Plant response rating, Oat, Wild (wild oat (Avena fatua); [10]): 50
31 | CCCn1c(-c2ccsc2)ncc(C(=O)C2=C(O)C3CCC(C3)C2=O)c1=O (centres unmarked) [Compound 227] |  |  |  |  | 0 | 30 | Plant response rating, Oat, Wild (wild oat (Avena fatua); [10]): 0
32 | O=C(C1=C(O)C2CCC(C2)C1=O)c1cnc(-c2ccsc2)n(CC2CCCO2)c1=O (centres unmarked) [Compound 229] |  |  |  |  | 0 | 35 | Plant response rating, Oat, Wild (wild oat (Avena fatua); [10]): 5
33 | CCCCn1c(-c2cccc(F)c2)ncc(C(=O)C2=C(O)C3CCC(C3)C2=O)c1=O (centres unmarked) [Compound 237] |  |  |  |  | 40 | 90 | Plant response rating, Oat, Wild (wild oat (Avena fatua); [10]): 55; Plant response rating, Oat, Wild (wild oat (Avena fatua); [11]): 60
34 | CCn1c(-c2ccccc2)ncc(C(=O)C2=C(O)C3CCC(C3)C2=O)c1=O (centres unmarked) [Compound 239] |  |  |  |  | 0 | 30 | Plant response rating, Oat, Wild (wild oat (Avena fatua); [10]): 5; Plant response rating, Oat, Wild (wild oat (Avena fatua); [11]): 5
